Reference: ChEMBL document CHEMBL2163241, “Human neutrophil elastase phosphonic inhibitors with improved potency of action” (J Med Chem, 2012)

Legend:
[1] = Inhibition of chymotrypsin at 25 uM assessed as Kinact/Ki ratio incubated for 15 mins by spectrofluorometry
[2] = Inhibition of trypsin at 25 uM assessed as Kinact/Ki ratio incubated for 15 mins by spectrofluorometry
[3] = biological target: Pancreatic elastase (Sus scrofa) (UniProt P08419+P00772); assay: Inhibition of porcine pancreatic elastase at 25 uM assessed as Kinact/Ki ratio incubated for 15 mins by spectrofluorometry; assay type: protein assay
[4] = biological target: T1, Neutrophil elastase (Homo sapiens) (UniProt P08246); assay: Inhibition of human leukocyte elastase at 25 uM assessed as Kinact/Ki ratio incubated for 15 mins by spectrofluorometry
T1 sequence (whole entry): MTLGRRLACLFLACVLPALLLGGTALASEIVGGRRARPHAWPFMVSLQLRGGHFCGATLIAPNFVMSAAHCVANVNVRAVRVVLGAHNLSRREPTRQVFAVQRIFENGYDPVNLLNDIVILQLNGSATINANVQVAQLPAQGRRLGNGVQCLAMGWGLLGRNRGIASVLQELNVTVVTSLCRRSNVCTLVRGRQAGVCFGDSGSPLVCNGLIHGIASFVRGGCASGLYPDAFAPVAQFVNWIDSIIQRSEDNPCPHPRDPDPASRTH

Row | SMILES | Ratio [1] [M⁻¹ s⁻¹] | Ratio [2] [M⁻¹ s⁻¹] | Ratio [3] [M⁻¹ s⁻¹] | Ratio [4] [M⁻¹ s⁻¹] | inhibition [2] [%] | inhibition [1] [%]
1 | CSc1ccc(OP(=O)(Oc2ccc(SC)cc2)[C@@H](NC(=O)[C@@H]2CCCN2C(=O)[C@@H](NC(=O)OC(C)(C)C)C(C)C)C(C)C)cc1 | 850 | < 50 | 22300 | 431000 | – | –
2 | CC[C@H](C)[C@H](NC(=O)OCc1ccccc1)C(=O)N1CCC[C@H]1C(=O)NC(C(C)C)P(=O)(Oc1ccc(SC)cc1)Oc1ccc(SC)cc1 (mixture of isomers) | 1600 | < 50 | 1800 | 145000 | – | –
3 | CC(C)[C@H](NC(=O)OC(C)(C)C)C(=O)N1CCC[C@H]1C(=O)NC(C)P(=O)(Oc1ccc(C(C)(C)C)cc1)Oc1ccc(C(C)(C)C)cc1 (mixture of isomers) | < 50 | – | < 50 | < 50 | < 5 | –
4 | CSc1ccc(OP(=O)(Oc2ccc(SC)cc2)C(NC(=O)[C@@H]2CCCN2C(=O)[C@@H](C)NC(=O)OC(C)(C)C)C(C)C)cc1 (mixture of isomers) | < 50 | < 50 | 900 | 39400 | – | –
5 | CSc1ccc(OP(=O)(Oc2ccc(SC)cc2)[C@@H](NC(=O)[C@@H]2CCCN2C(=O)[C@@H](NC(=O)Cn2cc(C)c(=O)n(CC(=O)O)c2=O)C(C)C)C(C)C)cc1 | 44700 | 280 | 243000 | 1.76e+06 | – | –
6 | CC(C)C(NC(=O)[C@@H]1CCCN1C(=O)[C@@H](NC(=O)OC(C)(C)C)C(C)C)P(=O)(Oc1ccc(Cl)cc1)Oc1ccc(Cl)cc1 (mixture of isomers) | 250 | < 50 | 5000 | 92100 | – | –
7 | CCC(NC(=O)[C@@H]1CCCN1C(=O)[C@@H](NC(=O)OC(C)(C)C)C(C)C)P(=O)(Oc1ccc(OC)cc1)Oc1ccc(OC)cc1 (mixture of isomers) | < 50 | < 50 | 9900 | 11000 | – | –
8 | COc1ccc(C(=O)N[C@H](C(=O)N2CCC[C@H]2C(=O)N[C@H](C(C)C)P(=O)(Oc2ccc(SC)cc2)Oc2ccc(SC)cc2)C(C)C)cc1 | < 50 | – | < 50 | 4800 | < 5 | –
9 | CCC(NC(=O)[C@@H]1CCCN1C(=O)[C@@H](NC(=O)OC(C)(C)C)C(C)C)P(=O)(Oc1ccc(C)c(C)c1)Oc1ccc(C)c(C)c1 (mixture of isomers) | < 50 | < 50 | 1250 | 460 | – | –
10 | COc1ccc(C(=O)N[C@H](C(=O)N2CCC[C@H]2C(=O)N[C@@H](C(C)C)P(=O)(Oc2ccc(SC)cc2)Oc2ccc(SC)cc2)C(C)C)cc1 | 100 | < 50 | 6700 | 540000 | – | –
11 | CCCC(NC(=O)[C@@H]1CCCN1C(=O)[C@@H](NC(=O)OC(C)(C)C)C(C)C)P(=O)(Oc1ccccc1)Oc1ccccc1 (mixture of isomers) | 140 | < 50 | 10900 | 2600 | – | –
12 | CC(C)CC(NC(=O)[C@@H]1CCCN1C(=O)[C@@H](NC(=O)OC(C)(C)C)C(C)C)P(=O)(Oc1ccccc1)Oc1ccccc1 (mixture of isomers) | 1900 | < 50 | 1300 | 325 | – | –
13 | CC(C)C(NC(=O)[C@@H]1CCCN1C(=O)[C@@H](NC(=O)OC(C)(C)C)C(C)C)P(=O)(Oc1ccc(C(C)(C)C)cc1)Oc1ccc(C(C)(C)C)cc1 (mixture of isomers) | – | – | 700 | 3450 | < 5 | < 5
14 | CSc1ccc(OP(=O)(Oc2ccc(SC)cc2)C(NC(=O)[C@@H]2CCCN2C(=O)CNC(=O)OCc2ccccc2)C(C)C)cc1 (mixture of isomers) | 200 | < 50 | 1200 | 39000 | – | –
15 | CCCCC(NC(=O)[C@@H]1CCCN1C(=O)[C@@H](NC(=O)OC(C)(C)C)C(C)C)P(=O)(Oc1ccccc1)Oc1ccccc1 (mixture of isomers) | 400 | < 50 | 1700 | 650 | – | –
16 | CC(C)c1ccc(OP(=O)(Oc2ccc(C(C)C)cc2)C(C)NC(=O)[C@@H]2CCCN2C(=O)[C@@H](NC(=O)OC(C)(C)C)C(C)C)cc1 (mixture of isomers) | < 50 | – | 300 | < 50 | < 5 | –
17 | CSc1ccc(OP(=O)(Oc2ccc(SC)cc2)C(NC(=O)[C@@H]2CCCN2C(=O)[C@H](C)NC(=O)OCc2ccccc2)C(C)C)cc1 (mixture of isomers) | 1500 | < 50 | 12000 | 144000 | – | –
18 | CCC(NC(=O)[C@@H]1CCCN1C(=O)[C@@H](NC(=O)OC(C)(C)C)C(C)C)P(=O)(Oc1ccccc1)Oc1ccccc1 (mixture of isomers) | < 50 | < 50 | 12700 | 7100 | – | –
19 | CC(C)CC(NC(=O)[C@@H]1CCCN1C(=O)[C@@H](NC(=O)OC(C)(C)C)C(C)C)P(=O)(Oc1ccc(Cl)cc1)Oc1ccc(Cl)cc1 (mixture of isomers) | 18100 | < 50 | 12800 | 3400 | – | –
20 | CSCC[C@H](NC(=O)OCc1ccccc1)C(=O)N1CCC[C@H]1C(=O)NC(C(C)C)P(=O)(Oc1ccc(SC)cc1)Oc1ccc(SC)cc1 (mixture of isomers) | 3700 | < 50 | 6300 | 223000 | – | –
21 | CSc1ccc(OP(=O)(Oc2ccc(SC)cc2)[C@H](NC(=O)[C@@H]2CCCN2C(=O)[C@@H](NC(=O)Cn2ccc(=O)n(CC(=O)O)c2=O)C(C)C)C(C)C)cc1 | < 50 | – | 200 | 2000 | < 5 | –
22 | COc1ccc(OP(=O)(Oc2ccc(OC)cc2)C(NC(=O)[C@@H]2CCCN2C(=O)[C@@H](NC(=O)OC(C)(C)C)C(C)C)C(C)C)cc1 (mixture of isomers) | < 50 | < 50 | 19500 | 42700 | – | –
23 | CCC(NC(=O)[C@@H]1CCCN1C(=O)[C@@H](NC(=O)OC(C)(C)C)C(C)C)P(=O)(Oc1ccc(C(C)C)cc1)Oc1ccc(C(C)C)cc1 (mixture of isomers) | < 50 | < 50 | 580 | < 50 | – | –
24 | CCC(NC(=O)[C@@H]1CCCN1C(=O)[C@@H](NC(=O)OC(C)(C)C)C(C)C)P(=O)(Oc1ccc(SC)cc1)Oc1ccc(SC)cc1 (mixture of isomers) | 365 | 460 | 60100 | 165000 | – | –
25 | CC(C)c1ccc(OP(=O)(Oc2ccc(C(C)C)cc2)C(NC(=O)[C@@H]2CCCN2C(=O)[C@@H](NC(=O)OC(C)(C)C)C(C)C)C(C)C)cc1 (mixture of isomers) | < 50 | < 50 | 2000 | 4200 | – | –
26 | CCc1ccc(OP(=O)(Oc2ccc(CC)cc2)C(CC)NC(=O)[C@@H]2CCCN2C(=O)[C@@H](NC(=O)OC(C)(C)C)C(C)C)cc1 (mixture of isomers) | < 50 | < 50 | 4210 | 1380 | – | –
27 | CSc1ccc(OP(=O)(Oc2ccc(SC)cc2)C(NC(=O)[C@@H]2CCCN2C(=O)[C@@H](NC(=O)OCc2ccccc2)C(C)C)C(C)C)cc1 (mixture of isomers) | 4400 | < 50 | 6200 | 231000 | – | –
